Test results: ChEMBL document CHEMBL4402583, “Rational Substitution of ε-Lysine for α-Lysine Enhances the Cell and Membrane Selectivity of Pore-Forming Melittin” (J Med Chem, 2020)
Values after ≈ are worked out from the molar mass of the structure shown. Active and inactive are the calls of the source. The calls are words filed in the database; no cut-off is given here.

Key:
[1] = tested on: Acinetobacter baumannii; test: Resistance index, ratio of MIC for Acinetobacter baumannii ATCC 19606 measured after 4 serial passages by broth microdilution method to MIC for Acinetobacter baumannii ATCC 19606 incubated for 24 hrs by broth microdilution method; assay type: functional, organism-based; settings: ATCC 19606 = CIP 70.34 = JCM 6841
[2] = tested on: NHDF; test: Cytotoxicity against HDF cells at 31.25 ug/ml incubated for 24 hrs by Alexa Fluor […] phalloidin-FITC/Hoescht dye staining based fluorescence microscopic analysis; assay type: cell-based; settings: human
[3] = Cytotoxicity against HDF cells assessed as minimum cytotoxic concentration incubated for 24 hrs by Alexa Fluor […] phalloidin-FITC/Hoescht dye staining based fluorescence microscopic analysis; assay type: cell-based; settings: human, HDF cells (NHDF, human dermal fibroblasts)
[4] = tested on: NHDF; test: Cytotoxicity against HDF cells assessed as reduction in metabolic activity at 32 ug/ml incubated for 24 hrs by MTS assay; assay type: ADME, cell-based; settings: human
[5] = tested on: Staphylococcus aureus; test: Antibacterial activity against Staphylococcus aureus assessed as reduction in bacterial growth incubated for 24 hrs by broth microdilution method; assay type: functional
[6] = tested on: Lipid bilayer; test: Induction of pore formation in negatively charged DOPE/DOPG large unilamellar vesicles assessed as calcein release at 0.39 to 50 uM measured for 60 mins by fluorescence based assay
[7] = tested on: Candida albicans; test: Antifungal activity against Candida albicans assessed as reduction in fungal growth incubated for 24 hrs by broth microdilution method; assay type: functional
[8] = tested on: Lipid bilayer; test: Induction of pore formation in negatively charged DOPE/DOPG large unilamellar vesicles assessed as ratio of peptide to lipid molar ratio that induces 50% calcein leakage measured for 60 mins by calcein dequenching based fluorescence based assay
[9] = tested on: Lipid bilayer; test: Binding affinity to zwitterionic DOPC/cholesterol large unilamellar vesicles assessed as transformation of peptide secondary structure to alpha-helical conformation by CD spectropolarimetry
[10] = tested on: Pseudomonas aeruginosa; test: Antibacterial activity against Pseudomonas aeruginosa assessed as reduction in bacterial growth incubated for 24 hrs by broth microdilution method; assay type: functional
[11] = tested on: Lipid bilayer; test: Induction of pore formation in zwitterionic DOPC/cholesterol large unilamellar vesicles assessed as calcein release at 0.39 to 50 uM measured for 60 mins by fluorescence based assay
[12] = Cytotoxicity against HDF cells assessed as minimum cytotoxic concentration incubated for 24 hrs by MTS assay; assay type: cell-based; settings: human, HDF cells (NHDF, human dermal fibroblasts)
[13] = tested on: NHDF; test: Cytotoxicity against HDF cells assessed as truncation and reduction in cytoskeleton at 500 ug/ml incubated for 24 hrs by Alexa Fluor […] phalloidin-FITC/Hoescht dye staining based fluorescence microscopic analysis; assay type: cell-based; settings: human
[14] = Cytotoxicity against HDF cells assessed as cell viability at 500 ug/ml incubated for 24 hrs by MTS assay relative to control; assay type: cell-based; settings: human, HDF cells (NHDF, human dermal fibroblasts); read-out: Activity
[15] = tested on: Enterobacteriaceae; test: Antibacterial activity against Carbapenem-Resistant Enterobacteriaceae assessed as reduction in bacterial growth incubated for 24 hrs by broth microdilution method; assay type: functional
[16] = tested on: Enterococcus; test: Antibacterial activity against vancomycin-resistant Enterococcus assessed as reduction in bacterial growth incubated for 24 hrs by broth microdilution method; assay type: functional
[17] = tested on: Acinetobacter baumannii; test: Antibacterial activity against multidrug-resistant Acinetobacter baumannii assessed as reduction in bacterial growth incubated for 24 hrs by broth microdilution method; assay type: functional
[18] = tested on: Staphylococcus aureus; test: Antibacterial activity against methicillin-sensitive Staphylococcus aureus assessed as reduction in bacterial growth incubated for 24 hrs by broth microdilution method; assay type: functional
[19] = tested on: Staphylococcus aureus; test: Antibacterial activity against methicillin-resistance Staphylococcus aureus assessed as reduction in bacterial growth incubated for 24 hrs by broth microdilution method; assay type: functional
[20] = tested on: Staphylococcus aureus; test: In vivo antibacterial activity against Staphylococcus aureus ATCC 29213 infected in C57BL/6 mouse assessed as reduction in bacterial burden by measuring log10 CFU/cornea at 0.3% administered topically as two times on day 1, four times on day 2 and two times on day 3 measured at 48 hrs post-final dose by 10 fold serial dilution method (reference value: 6.5 +/- 0.7 log10CFU); assay type: functional
[21] = tested on: Enterococcus faecalis; test: Induction of pore formation in intact vancomycin-resistant Enterococcus faecalis 1002 cell membrane assessed as SG uptake at 2 times MIC by SG dye based fluorescence based assay; assay type: organism-based
[22] = Stability of the compound in rabbit tear fluid measured after 2 hrs by UPLC-MS analysis; assay type: ADME, Oryctolagus cuniculus
[23] = tested on: Escherichia coli; test: Induction of pore formation in intact Escherichia coli 1004 cell membrane assessed as SG uptake at 2 times MIC by SG dye based fluorescence based assay; assay type: organism-based
[24] = tested on: Acinetobacter baumannii; test: Induction of pore formation in intact Acinetobacter baumannii 1001 cell membrane assessed as SG uptake at 2 times MIC by SG dye based fluorescence based assay; assay type: organism-based
[25] = tested on: Escherichia coli; test: Antibacterial activity against Escherichia coli 1004 assessed as reduction in bacterial viability at 2 or 4 times MIC incubated up to 24 hrs in MHB medium followed by reincubation on MH agar plate for 24 to 48 hrs by time kill kinetics assay; assay type: functional, organism-based
[26] = tested on: Enterococcus faecalis; test: Antibacterial activity against vancomycin-resistant Enterococcus faecalis 1010 assessed as log10 reduction in bacterial viability at 2 to 4 times MIC incubated for 30 mins in MHB medium followed by reincubation on MH agar plate for 24 to 48 hrs by time kill kinetics analysis; assay type: functional
[27] = tested on: Klebsiella pneumoniae; test: Antibacterial activity against Klebsiella pneumoniae 1008 assessed as reduction in bacterial viability at 2 or 4 times MIC incubated up to 24 hrs in MHB medium followed by reincubation on MH agar plate for 24 to 48 hrs by time kill kinetics assay; assay type: functional, organism-based
[28] = tested on: Enterococcus faecalis; test: Induction of pore formation in intact vancomycin-resistant Enterococcus faecalis ATCC 29212 cell membrane assessed as SG uptake at 2 times MIC by SG dye based fluorescence based assay; assay type: organism-based
[29] = tested on: Enterococcus faecalis; test: Antibacterial activity against vancomycin-resistant Enterococcus faecalis 1002 assessed as log10 reduction in bacterial viability at 2 to 4 times MIC incubated for 30 mins in MHB medium followed by reincubation on MH agar plate for 24 to 48 hrs by time kill kinetics analysis; assay type: functional
[30] = tested on: NHDF; test: Cytotoxicity against HDF cells assessed as reduction in metabolic activity at 16 ug/ml incubated for 24 hrs by MTS assay; assay type: ADME, cell-based; settings: human
[31] = tested on: Acinetobacter baumannii; test: Antibacterial activity against Acinetobacter baumannii 1001 assessed as reduction in bacterial viability at 2 or 4 times MIC incubated up to 24 hrs in MHB medium followed by reincubation on MH agar plate for 24 to 48 hrs by time kill kinetics assay; assay type: functional, organism-based
[32] = Stability of the compound in rabbit tear fluids assessed as parent compound remaining measured after 4 hrs by UPLC-MS analysis; assay type: ADME, Oryctolagus cuniculus; settings: tear fluid, read-out: Stability
[33] = tested on: Enterococcus faecalis; test: Antibacterial activity against vancomycin-resistant Enterococcus faecalis ATCC 29212 assessed as log10 reduction in bacterial viability at 2 to 4 times MIC incubated for 30 mins in MHB medium followed by reincubation on MH agar plate for 24 to 48 hrs by time kill kinetics analysis; assay type: functional

Compound	Activity [2]	MCC at 24 h [3] [µg/mL]	Activity [4]	MIC [5] [µg/mL]	Activity [6]	MIC [7] [µg/mL]	Ratio [8]	Activity [9]	MIC [10] [µg/mL]	Activity [11]	MCC at 24 h [12] [µg/mL]	MIC [15] [µg/mL]	MIC50 [15] [µg/mL]	MIC [16] [µg/mL]	MIC50 [16] [µg/mL]	MIC50 [7] [µg/mL]	MIC [17] [µg/mL]	MIC50 [17] [µg/mL]	MIC50 [10] [µg/mL]	MIC50 [18] [µg/mL]	also measured
GENTAMICIN																					Ratio [1]: 16
CC[C@H](C)[C@H](NC(=O)CN)C(=O)NCC(=O)N[C@@H](C)C(=O)N[C@H](C(=O)N[C@@H](CC(C)C)C(=O)N[C@@H](CCCCN)C(=O)N[C@H](C(=O)N[C@@H](CC(C)C)C(=O)N[C@H](C(=O)N[C@H](C(=O)NCC(=O)N[C@@H](CC(C)C)C(=O)N1CCC[C@H]1C(=O)N[C@@H](C)C(=O)N[C@@H](CC(C)C)C(=O)N[C@H](C(=O)N[C@@H](CO)C(=O)N[C@@H](Cc1c[nH]c2ccccc12)C(=O)N[C@H](C(=O)N[C@@H](CCCCN)C(=O)N[C@@H](CCCNC(=N)N)C(=O)NCCC[C@@H](CN)C(=O)N[C@@H](CCCNC(=N)N)C(=O)N[C@@H](CCC(N)=O)C(=O)N[C@@H](CCC(N)=O)C(N)=O)[C@@H](C)CC)[C@@H](C)CC)[C@@H](C)O)[C@@H](C)O)C(C)C)C(C)C	Toxic	> 16	Toxic	4 to 8 (≈ 1.41 to 2.81 µM)	Active	4 to 8 (≈ 1.41 to 2.81 µM)	0.15	inactive	4 to 16 (≈ 1.41 to 5.62 µM)	Active	> 16										
CC[C@H](C)[C@H](NC(=O)CN)C(=O)NCC(=O)N[C@@H](C)C(=O)N[C@H](C(=O)N[C@@H](CC(C)C)C(=O)NCCC[C@@H](CN)C(=O)N[C@H](C(=O)N[C@@H](CC(C)C)C(=O)N[C@H](C(=O)N[C@H](C(=O)NCC(=O)N[C@@H](CC(C)C)C(=O)N1CCC[C@H]1C(=O)N[C@@H](C)C(=O)N[C@@H](CC(C)C)C(=O)N[C@H](C(=O)N[C@@H](CO)C(=O)N[C@@H](Cc1c[nH]c2ccccc12)C(=O)N[C@H](C(=O)NCCC[C@@H](CN)C(=O)N[C@@H](CCCNC(=N)N)C(=O)NCCC[C@@H](CN)C(=O)N[C@@H](CCCNC(=N)N)C(=O)N[C@@H](CCC(N)=O)C(=O)N[C@@H](CCC(N)=O)C(N)=O)[C@@H](C)CC)[C@@H](C)CC)[C@@H](C)O)[C@@H](C)O)C(C)C)C(C)C						4 to 8 (≈ 1.41 to 2.81 µM)			16 to 64 (≈ 5.62 to 22.5 µM)			4 to 64 (≈ 1.41 to 22.5 µM)	8 (≈ 2.81 µM)	4 to 16 (≈ 1.41 to 5.62 µM)	8 (≈ 2.81 µM)	4 (≈ 1.41 µM)	4 to 8 (≈ 1.41 to 2.81 µM)	8 (≈ 2.81 µM)	32 (≈ 11.2 µM)	64 (≈ 22.5 µM)	Activity [13]: Toxic; viability at 24 h, 500 ug/ml [14]: 102%; MIC [18]: 16 to 128 µg/mL (≈ 5.62 to 45 µM); MIC50 [19]: 64 µg/mL (≈ 22.5 µM)
CC[C@H](C)[C@H](NC(=O)CN)C(=O)NCC(=O)N[C@@H](C)C(=O)N[C@H](C(=O)N[C@@H](CC(C)C)C(=O)N[C@@H](CCCCN)C(=O)N[C@H](C(=O)N[C@@H](CC(C)C)C(=O)N[C@H](C(=O)N[C@H](C(=O)NCC(=O)N[C@@H](CC(C)C)C(=O)N1CCC[C@H]1C(=O)N[C@@H](C)C(=O)N[C@@H](CC(C)C)C(=O)N[C@H](C(=O)N[C@@H](CO)C(=O)N[C@@H](Cc1c[nH]c2ccccc12)C(=O)N[C@H](C(=O)NCCC[C@@H](CN)C(=O)N[C@@H](CCCNC(=N)N)C(=O)N[C@@H](CCCCN)C(=O)N[C@@H](CCCNC(=N)N)C(=O)N[C@@H](CCC(N)=O)C(=O)N[C@@H](CCC(N)=O)C(N)=O)[C@@H](C)CC)[C@@H](C)CC)[C@@H](C)O)[C@@H](C)O)C(C)C)C(C)C	Toxic	> 16	Toxic	4 to 8 (≈ 1.41 to 2.81 µM)	Active	4 to 8 (≈ 1.41 to 2.81 µM)	0.24	inactive	4 to 16 (≈ 1.41 to 5.62 µM)	Active	> 16										
COc1c(N2C[C@@H]3CCCN[C@@H]3C2)c(F)cc2c(=O)c(C(=O)O)cn(C3CC3)c12 [MOXIFLOXACIN]																					Activity [20]: 3.7 log10CFU
CC[C@H](C)[C@H](NC(=O)CN)C(=O)NCC(=O)N[C@@H](C)C(=O)N[C@H](C(=O)N[C@@H](CC(C)C)C(=O)N[C@@H](CCCCN)C(=O)N[C@H](C(=O)N[C@@H](CC(C)C)C(=O)N[C@H](C(=O)N[C@H](C(=O)NCC(=O)N[C@@H](CC(C)C)C(=O)N1CCC[C@H]1C(=O)N[C@@H](C)C(=O)N[C@@H](CC(C)C)C(=O)N[C@H](C(=O)N[C@@H](CO)C(=O)N[C@@H](Cc1c[nH]c2ccccc12)C(=O)N[C@H](C(=O)N[C@@H](CCCCN)C(=O)N[C@@H](CCCNC(=N)N)C(=O)N[C@@H](CCCCN)C(=O)N[C@@H](CCCNC(=N)N)C(=O)N[C@@H](CCC(N)=O)C(=O)N[C@@H](CCC(N)=O)C(N)=O)[C@@H](C)CC)[C@@H](C)CC)[C@@H](C)O)[C@@H](C)O)C(C)C)C(C)C [MELITTIN]		> 8			Active	4 to 8 (≈ 1.41 to 2.81 µM)	0.04	Active		Active	> 8	8 to 32 (≈ 2.81 to 11.2 µM)	8 (≈ 2.81 µM)	0.5 to 8 (≈ 0.176 to 2.81 µM)	4 (≈ 1.41 µM)	4 (≈ 1.41 µM)	2 to 4 (≈ 0.703 to 1.41 µM)	4 (≈ 1.41 µM)	16 (≈ 5.62 µM)	4 (≈ 1.41 µM)	Activity [21]: Active; Stability [22]: Stable; Activity [23]: Active; Activity [24]: Active; Activity [25]: Active; log(activity) [26]: >5; Activity [27]: Active; MIC50 [19]: 4 µg/mL (≈ 1.41 µM); Activity [28]: Active; log(activity) [29]: >5; Activity [30]: Toxic; Activity [31]: Active; remaining at 4 h [32]: 85.3%; log(activity) [33]: >5
